“And” between values parts separate entries of the source, which are not always exact repeats. Identical values can stand only once. Counter-ions that a name gives are not always drawn. Like-named read-outs stand apart in the source and are kept apart here.
Columns and labels:
[1] = single-pass perfusions, cited from earlier work
[2] = from literature; cited from earlier work
[3] = cited from earlier work
[4] = test system: mucin immobilized to IAM.PC.DD2; experiment: HPLC on MIC column (2:1 mucin to PC IAM particles): retention time, k′MIC, derived Km and Peff MIC; settings: for log k′MIC / K′MIC: MIC 2:1; for k′MIC / Retention Time: MIC column 2:1 mucin:IAM, MPS pH 7.4; for Retention Time: isocratic 0.3 ml/min; for Dm: membrane diffusion coefficient calculated from molecular weight; for Peff MIC (×10^−4 cm/s): determined by linear equation
Protocol: [formula] where Dm is the membrane diffusion coefficient of the solute, Km is the membrane equilibrium constant, and L is the membrane thickness (Stein, W., Transport and Diffusion Across Cell Membranes, Academic Press, Orlando, Fla. (1986)). […] Since molecular weight, MW, is proportional to molecular size, Dm may also written as,
[formula] Thus, Dm can be calculated from the molecular weight. Furthermore, Km is calculated by the following equation, Km−(Vm/Vs)k′, [4] where Vm is the volume of the mobile phase, Vs is the internal volume of the stationary phase, and k′ is the partition ratio (Pidgeon and Ong, Chemtech. June, 38-48 (1995)). The partition ratio is determined by the equation, k′−(tr−to)/to, [5] where tr is the retention time of the drug and to is the void volume of the column. Both tr and to can be experimentally determined in order to obtain k′.
Equation 2 can be used to determine Km for a given MIC medium. Both Dm and L are known from the discussion above, and Peff can be calculated for various drugs having known in vivo absorption. For example, a number of drug permeability coefficients, Peff, derived from in vivo experiments are listed in literature. […] See Example 5 below.

[5] = test system: mucin immobilized to PC IAM particles; experiment: pH and mucin layer thickness dependence of partition ratio on MIC columns (1:2 and 2:1); settings: for k′MIC (1:2): column 1:2, 0.32 μm; for k′MIC (1:2) / k′MIC (2:1): pH 7, Table 9; for (1:2) k′ (pH 3) / (1:2) k′ (pH 5) / (1:2) k′ (pH 7): column 1:2 mucin to PC IAM, 0.32 μm mucin layer; for (1:2) k′ (pH 3) / (2:1) k′ (pH 3): mobile phase pH 3; for (1:2) k′ (pH 5) / (2:1) k′ (pH 5): mobile phase pH 5; for (1:2) k′ (pH 7) / (2:1) k′ (pH 7): mobile phase pH 7; for k′MIC (2:1): column 2:1, 0.36 μm; for (2:1) k′ (pH 3) / (2:1) k′ (pH 5) / (2:1) k′ (pH 7): column 2:1 mucin to PC IAM, 0.36 μm mucin layer
Protocol: Samples were dissolved in mobile phase solution and filtered (filter pore size, 0.45 μm) prior to injection. […] From this measurement and a measurement of the void volume (t0) the k′MIC could be determined. In addition, from the molecular weight of the compounds, Dm could be determined. These compounds, with the exceptions noted below, were used to generate the column constant (Vm/Vs).
For these reasons, the influence of pH on drug retention times was measured on columns having two different mucin layer thicknesses, 0.32 μm (column prepared with a 1:2 wt % of mucin to PC IAM particles) and 0.36 μm (column prepared with a 2:1 wt % of mucin to PC IAM particles)(Table 8). […] The influence of pH on drug retention time was measured by using different mobile phase buffers adjusted to pH 3, 5 or 7 on either the 0.32 μm or 0.36 μm column.
Capacity factors were calculated from drug retention times collected on columns having two different mucin layer thicknesses, 0.32 μm (column prepared with a 1:2 wt % of mucin to PC IAM particles) and 0.36 μm (column prepared with a 2:1 wt % of mucin to PC IAM particles).

Caco-2 = settings: from literature, cited from earlier work

In the case of Cc1cc(=O)n(-c2ccccc2)n1C [Antipyrine], the “Peff Loc-I-Gut (×10^−4 cm/s)” value ([1]; Table 5) is listed as 5.6 ×10^−4 cm/s, the “Peff Loc-I-Gut (×10^−4 cm/s)” value ([1]; Table 9) is listed as 5.6 ×10^−4 cm/s and the “log k′IAM” value [2] is listed as −0.02. For the same molecule, the “% Absorbed” value ([3]; in vivo) was 100%, the “δ = log k′MIC − log k′IAM” value [4] was 1.91 and the “log k′MIC” value [4] was 1.89. The “K′MIC” value ([4]; Table 5) was 77.57, the “k′MIC” value [4] was 77.5714 and the “Retention Time” value [4] was 5.5. For the same molecule, the Dm [4] was 0.0053, the “k′MIC (1:2)” value [5] was 50.7 and the “(1:2) k′ (pH 3)” value [5] was 54.00. For the same molecule, the “(1:2) k′ (pH 5)” value [5] was 54.00, the “(1:2) k′ (pH 7)” value [5] was 50.67 and the “k′MIC (2:1)” value [5] was 40.7. The “(2:1) k′ (pH 3)” value [5] was 40.43, the “(2:1) k′ (pH 5)” value [5] was 39.00 and the “(2:1) k′ (pH 7)” value [5] was 40.67.
In the case of COCCc1ccc(OCC(O)CNC(C)C)cc1 (stereo not drawn) [Metoprolol], the “δ = log k′MIC − log k′IAM” value [4] is reported as 1.14, the “log k′MIC” value [4] is reported as 1.64 and the “K′MIC” value ([4]; Table 5) is reported as 43. For the same molecule, the “K′MIC” value ([4]; Table 6) was 43.29, the “k′MIC” value [4] was 43.2857 and the “Retention Time” value [4] was 3.1. For the same molecule, the “Peff MIC (×10^−4 cm/s)” value ([4]; Table 5) was 1.21 ×10^−4 cm/s, the “Peff MIC (×10^−4 cm/s)” value ([4]; Table 6) was 1.21 ×10^−4 cm/s and the Dm [4] was 0.0015. The “k′MIC (1:2)” value [5] was 47.3, the “(1:2) k′ (pH 3)” value [5] was 50.67 and the “(1:2) k′ (pH 5)” value [5] was 50.67. The “(1:2) k′ (pH 7)” value [5] was 47.33, the “k′MIC (2:1)” value [5] was 35.7 and the “(2:1) k′ (pH 3)” value [5] was 36.14. The “(2:1) k′ (pH 5)” value [5] was 41.86, the “(2:1) k′ (pH 7)” value [5] was 35.67 and the “Peff Caco-2 (×10^−6 cm/s)” value (Caco-2; Table 5) was 23.7 ×10^−6 cm/s. The “Peff Caco-2 (×10^−6 cm/s)” value (Caco-2; Table 6) was 23.7 ×10^−6 cm/s.
For CC(C)NCC(O)COc1cccc2ccccc12 (stereo not drawn) [Propranolol], the “log k′IAM” value [2] is listed as 1.75, the “δ = log k′MIC − log k′IAM” value [4] is listed as 0.10 and the “log k′MIC” value [4] is listed as 1.85. For the same molecule, the “K′MIC” value ([4]; Table 5) was 70.43, the “K′MIC” value ([4]; Table 6) was 70.43 and the “k′MIC” value [4] was 70.4286. For the same molecule, the “Retention Time” value [4] was 5.0, the “Peff MIC (×10^−4 cm/s)” value ([4]; Table 5) was 4.24 ×10^−4 cm/s and the “Peff MIC (×10^−4 cm/s)” value ([4]; Table 6) was 4.24 ×10^−4 cm/s. For the same molecule, the Dm [4] was 0.0034, the “(1:2) k′ (pH 3)” value [5] was 75.67 and the “(1:2) k′ (pH 5)” value [5] was 92.33. For the same molecule, the “(1:2) k′ (pH 7)” value [5] was 99.00, the “(2:1) k′ (pH 3)” value [5] was 49.00 and the “(2:1) k′ (pH 5)” value [5] was 59.00. The “(2:1) k′ (pH 7)” value [5] was 99.00, the “Peff Caco-2 (×10^−6 cm/s)” value (Caco-2; Table 5) was 21.8 ×10^−6 cm/s and the “Peff Caco-2 (×10^−6 cm/s)” value (Caco-2; Table 6) was 21.8 ×10^−6 cm/s.
For CC(C)(C)NCC(O)c1cc(O)cc(O)c1 (stereo not drawn) [Terbutaline], the “Peff Loc-I-Gut (×10^−4 cm/s)” value ([1]; Table 5) is given as 0.3 ×10^−4 cm/s, the “Peff Loc-I-Gut (×10^−4 cm/s)” value ([1]; Table 6) is given as 0.3 ×10^−4 cm/s and the “Peff Loc-I-Gut (×10^−4 cm/s)” value ([1]; Table 9) is given as 0.3 ×10^−4 cm/s. The “log k′IAM” value [2] was 0.50, the “% Absorbed” value ([3]; Table 5) was 60% and the “% Absorbed” value ([3]; Table 6) was 60%. For the same molecule, the “% Absorbed” value ([3]; Table 7) was 60%, the “δ = log k′MIC − log k′IAM” value [4] was 1.14 and the “log k′MIC” value [4] was 1.64. The “K′MIC” value ([4]; Table 5) was 43, the “K′MIC” value ([4]; Table 6) was 43.29 and the “k′MIC” value [4] was 43.2857. The “Retention Time” value [4] was 3.1, the “Peff MIC (×10^−4 cm/s)” value ([4]; Table 5) was 1.21 ×10^−4 cm/s and the “Peff MIC (×10^−4 cm/s)” value ([4]; Table 6) was 1.21 ×10^−4 cm/s. For the same molecule, the Dm [4] was 0.0036, the “k′MIC (1:2)” value [5] was 39 and the “(1:2) k′ (pH 3)” value [5] was 45.67. The “(1:2) k′ (pH 5)” value [5] was 49.00, the “(1:2) k′ (pH 7)” value [5] was 39.00 and the “k′MIC (2:1)” value [5] was 35.7. For the same molecule, the “(2:1) k′ (pH 3)” value [5] was 34.71, the “(2:1) k′ (pH 5)” value [5] was 37.57 and the “(2:1) k′ (pH 7)” value [5] was 35.67. The “Peff Caco-2 (×10^−6 cm/s)” value (Caco-2; Table 5) was 0.47 ×10^−6 cm/s and the “Peff Caco-2 (×10^−6 cm/s)” value (Caco-2; Table 6) was 0.47 ×10^−6 cm/s.
In the case of NC(=O)N1c2ccccc2C=Cc2ccccc21 [carbamazepine], the “Peff Loc-I-Gut (×10^−4 cm/s)” value ([1]; Table 5) is listed as 4.3 ×10^−4 cm/s, the “Peff Loc-I-Gut (×10^−4 cm/s)” value ([1]; Table 6) is listed as 4.3 ×10^−4 cm/s and the “K′MIC” value ([4]; Table 5) is listed as 59.00. For the same molecule, the “K′MIC” value ([4]; Table 6) was 59.00, the “k′MIC” value [4] was 59.0000 and the “Retention Time” value [4] was 4.2. The “Peff MIC (×10^−4 cm/s)” value ([4]; Table 5) was 2.96 ×10^−4 cm/s, the “Peff MIC (×10^−4 cm/s)” value ([4]; Table 6) was 2.96 ×10^−4 cm/s and the Dm [4] was 0.0042. For the same molecule, the “Peff Caco-2 (×10^−6 cm/s)” value (Caco-2; Table 5) was 19.9 ×10^−6 cm/s and the “Peff Caco-2 (×10^−6 cm/s)” value (Caco-2; Table 6) was 19.9 ×10^−6 cm/s.
For C[C@]12C[C@H](O)[C@H]3[C@@H](CCC4=CC(=O)CC[C@@]43C)[C@@H]1CC[C@@H]2C(=O)CO [corticosterone], the “log k′IAM” value [2] is given as 1.60, the “% Absorbed” value ([3]; Table 7) is given as 100% and the “δ = log k′MIC − log k′IAM” value [4] is given as 0.18. The “log k′MIC” value [4] was 1.78, the “k′MIC” value [4] was 60.4286 and the “Retention Time” value [4] was 4.3. The Dm [4] was 0.0029, the “(1:2) k′ (pH 3)” value [5] was 24.00 and the “(1:2) k′ (pH 5)” value [5] was 22.33. For the same molecule, the “(1:2) k′ (pH 7)” value [5] was 24.00, the “(2:1) k′ (pH 3)” value [5] was 20.43 and the “(2:1) k′ (pH 5)” value [5] was 20.43. The “(2:1) k′ (pH 7)” value [5] was 24.00.
For CCOC(=O)[C@H](CCc1ccccc1)N[C@@H](C)C(=O)N1CCC[C@H]1C(=O)O [enalapril maleate], the “Peff Loc-I-Gut (×10^−4 cm/s)” value ([1]; Table 5) is given as 0.2 ×10^−4 cm/s, the “Peff Loc-I-Gut (×10^−4 cm/s)” value ([1]; Table 9) is given as 0.2 ×10^−4 cm/s and the “% Absorbed” value ([3]; Table 5) is given as 60%. The Bioavailability ([3]; footnotes of Table 4 that tell the two cimetidine and two enalapril maleate lines apart) was “^4Bioavailability = 60%;”, the percent absorption value ([3]; reported in literature, either of two values) was 60 and 100 and the “K′MIC” value ([4]; Table 5) was 35.86. For the same molecule, the “k′MIC” value [4] was 35.8571, the “Retention Time” value [4] was 2.6 and the “Retention Time” value ([4]; listed as Enalapril maleate) was 7.8. For the same molecule, the “k′MIC” value ([4]; listed as Enalapril maleate) was 110.429, the “Peff MIC (×10^−4 cm/s)” value ([4]; Table 5) was 0.38 ×10^−4 cm/s and the Dm [4] was 0.0020. The “stability during the HPLC analyses” value ([4]; two peaks, hydrolyzed and non-hydrolyzed forms) was “hydrolyzed to enalaprilat”, the “k′MIC (1:2)” value [5] was 34 and the “(1:2) k′ (pH 3)” value [5] was 27.33. The “(1:2) k′ (pH 5)” value [5] was 37.33, the “(1:2) k′ (pH 7)” value [5] was 34.00 and the “k′MIC (2:1)” value [5] was 20.7. The “(2:1) k′ (pH 3)” value [5] was 31.86, the “(2:1) k′ (pH 5)” value [5] was 21.86 and the “(2:1) k′ (pH 7)” value [5] was 20.67.

— US7659240B2, “Mucin immobilized chromatography” (Vertex Pharmaceuticals Incorporated, priority 2002, dated 2010)
